The subject of one assay is LNCaP cells. Briefly: Hoechst dye-DNA fluorescence growth assay, LNCaP cells. The format is cell-based, human. To be noted: varying concentrations (FIG. 8). As to the method:
(§1) For DNA assay, each culture plate was thawed and equilibrated to room temperature under protection from light. Hoechst dye was then added to each well in 200 μL of high salt TNE buffer (10 mM Tris, 1 mM EDTA, 2 M NaCl [pH 7.4]) at a final concentration of 6.7 μg/mL. After further incubation at room temperature for 2 hours under protection from light, culture plates were scanned on the CytoFluor 2350™ scanner using the 360/460 nm filter excitation and emission set. The DNA fluorescence intensity was used as a measure of cell growth.
(§2) The effects of varying concentrations of Mito-T drug on the growth of LNCaP and PC-3 cells over a period of 4 days was assayed using the Hoechst dye-DNA fluorescence assay described above. In these and all subsequent cell culture studies described below, each data point and its associated error bar are respectively, an average value and the standard deviation of data obtained from six wells of a 96-well plate run in duplicate in three separate sets of experiments.

The next assay deals with PC-3 cells. Briefly: Hoechst dye-DNA fluorescence growth assay, PC-3 cells. The format is cell-based, human. To be noted: varying concentrations (FIG. 8). The method, then:
as §1, §2

Molecules are shown by their SMILES.

For `CC1(C)CC(OCCCCCCCCCC[P+](c2ccccc2)(c2ccccc2)c2ccccc2)CC(C)(C)N1[O]` [MitoT-10, [4-(10-triphenylphosphonium)decyloxy-2,2,6,6-tetramethylpiperidinyloxy, freeradical]bromide], the growth and proliferation result in the assay with LNCaP cells and in the assay on PC-3 cells was “inhibitory effect” in each case.

Source of the values: patent US8466130B2, “Mitochondria targeted cationic anti-oxidant compounds for prevention, therapy or treatment of hyper-proliferative disease, neoplasias and cancers” (Colby Pharmaceutical Company, priority 2009, dated 2013).
